{"source": "ChEMBL document CHEMBL3217490", "about": "“An approach to enzyme inhibition employing reversible boronate ester formation” (Medchemcomm, 2011)", "key": {"Homo sapiens [1]": {"species": "Homo sapiens", "experiment": "Binding affinity to alpha-chymotrypsin (unknown origin) at 5 mM by [1H] waterLOGSY NMR analysis in presence of D-fructose"}, "[2]": {"experiment": "Dissociation constant, pKa of the compound", "type": "physicochemical"}, "[3]": {"experiment": "Inhibition of alpha-chymotrypsin (unknown origin)", "parameters": "species or system Homo sapiens"}, "[4]": {"experiment": "Inhibition of Escherichia coli beta-lactamase AmpC"}, "Homo sapiens [5]": {"species": "Homo sapiens", "experiment": "Binding affinity to alpha-chymotrypsin (unknown origin) at 1 mM at pH 5.8 by 11B-NMR analysis in presence of D-fructose"}, "Homo sapiens [6]": {"species": "Homo sapiens", "experiment": "Binding affinity to alpha-chymotrypsin (unknown origin) at 5 mM by [1H] waterLOGSY NMR analysis in presence of L-fructose"}, "Homo sapiens [7]": {"species": "Homo sapiens", "experiment": "Inhibition of alpha-chymotrypsin (unknown origin) using succinyl-Ala-Ala-Pro-Phe-para-nitroanilide as substrate assessed as residual activity at 25 uM after 10 mins in presence of L-fructose relative to control"}, "Homo sapiens [8]": {"species": "Homo sapiens", "experiment": "Binding affinity to alpha-chymotrypsin (unknown origin) at 1 mM at pH 5.8 by 11B-NMR analysis in presence of L-sorbose"}, "Homo sapiens [9]": {"species": "Homo sapiens", "experiment": "Inhibition of alpha-chymotrypsin (unknown origin) using succinyl-Ala-Ala-Pro-Phe-para-nitroanilide as substrate assessed as residual activity at 25 uM after 10 mins in presence of D-fructose relative to control"}, "Homo sapiens [10]": {"species": "Homo sapiens", "experiment": "Binding affinity to alpha-chymotrypsin (unknown origin) at 1 mM at pH 5.8 by 11B-NMR analysis"}, "Homo sapiens [11]": {"species": "Homo sapiens", "experiment": "Binding affinity to alpha-chymotrypsin (unknown origin) at 1 mM at pH 5.8 by 11B-NMR analysis in presence of D-sorbose"}, "Homo sapiens [12]": {"species": "Homo sapiens", "experiment": "Inhibition of alpha-chymotrypsin (unknown origin) using succinyl-Ala-Ala-Pro-Phe-para-nitroanilide as substrate assessed as residual activity at 25 uM after 10 mins in presence of L-glucose relative to control"}, "Homo sapiens [13]": {"species": "Homo sapiens", "experiment": "Inhibition of alpha-chymotrypsin (unknown origin) using succinyl-Ala-Ala-Pro-Phe-para-nitroanilide as substrate assessed as residual activity at 25 uM after 10 mins in presence of D-glucose relative to control"}, "Homo sapiens [14]": {"species": "Homo sapiens", "experiment": "Binding affinity to alpha-chymotrypsin (unknown origin) at 1 mM at pH 5.8 by 11B-NMR analysis in presence of L-fructose"}}, "note": "The source made the active and inactive calls. The calls are words filed in the database; no cut-off is given here."}
{"smiles": "OB(O)c1cc2ccccc2o1", "values": [{"measurement": "Activity", "setting": "Homo sapiens [1]", "value": "Active"}, {"measurement": "pKa", "setting": "[2]", "value": 7.3}, {"measurement": "IC50", "setting": "[3]", "value": 14, "unit": "µM"}, {"measurement": "IC50", "setting": "[4]", "value": 0.22, "unit": "µM"}, {"measurement": "Activity", "setting": "Homo sapiens [5]", "value": "Active"}, {"measurement": "Activity", "setting": "Homo sapiens [6]", "value": "inactive"}]}
{"smiles": "OB(O)c1cc2ccccc2s1", "values": [{"measurement": "Activity", "setting": "Homo sapiens [1]", "value": "Active"}, {"measurement": "pKa", "setting": "[2]", "value": 7.44}, {"measurement": "IC50", "setting": "[3]", "value": 5, "unit": "µM"}, {"measurement": "Activity", "setting": "Homo sapiens [7]", "value": 97, "unit": "%"}, {"measurement": "Activity", "setting": "Homo sapiens [8]", "value": "Active"}, {"measurement": "Activity", "setting": "Homo sapiens [9]", "value": 78, "unit": "%"}, {"measurement": "Activity", "setting": "Homo sapiens [5]", "value": "Active"}, {"measurement": "Activity", "setting": "Homo sapiens [10]", "value": "Active"}, {"measurement": "Activity", "setting": "Homo sapiens [11]", "value": "Active"}, {"measurement": "Activity", "setting": "Homo sapiens [12]", "value": 94, "unit": "%"}, {"measurement": "Activity", "setting": "Homo sapiens [13]", "value": 97, "unit": "%"}, {"measurement": "Activity", "setting": "Homo sapiens [14]", "value": "Active"}, {"measurement": "Activity", "setting": "Homo sapiens [6]", "value": "inactive"}]}
{"smiles": "OB(O)O", "note": "[BORIC ACID]", "values": [{"measurement": "pKa", "setting": "[2]", "value": 10}]}
{"smiles": "OB(O)c1ccc(O)cc1", "values": [{"measurement": "pKa", "setting": "[2]", "value": 10}]}
{"smiles": "CCB(O)O", "values": [{"measurement": "pKa", "setting": "[2]", "value": 10}]}
{"smiles": "OB(O)c1ccc2ccccc2c1", "values": [{"measurement": "pKa", "setting": "[2]", "value": 8.88}]}
